Measurements reported in US8993574B2, “Pyrrole antifungal agents” (F2G Ltd, priority 2008, dated 2015).
Values after ≈ are worked out from the molar mass of the structure shown.

Columns and labels:
Format in all cases: cell-based
Aspergillus flavus [1] = assay: MIC, RPMI medium; conditions: MIC banded into grades; for MIC: Aspergillus flavus, read-out: MIC grade, A. flavus
Summary of the method: (§1)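 Fungi are tested in RPMI buffered with 0.135 M MOPS (pH 7.0) plus 2% glucose, inoculum 1−2×10^4 cfu/mL, against doubling compound dilutions spanning 50-0.05 mg/L. After 24-48 h at 35° C, the MIC is the lowest concentration suppressing growth by >80% against drug-free control.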

[2] = tested on: Aspergillus fumigatus AF210; assay: MIC, RPMI medium; conditions: for MIC: Aspergillus fumigatus, AF210, MIC banded into grades, read-out: MIC grade, A. fumigatus 210; for MIC grade, A. fumigatus 210: MIC banded into grades
Summary of the method: as §1

[3] = tested on: Aspergillus fumigatus AF293; assay: MIC, RPMI medium; conditions: for MIC: Aspergillus fumigatus, AF293, MIC banded into grades, read-out: MIC grade, A. fumigatus; for MIC grade, A. fumigatus: MIC banded into grades
Summary of the method: as §1

Aspergillus terreus AT49 [4] = assay: MIC, RPMI medium; conditions: for MIC: Aspergillus terreus, AT49, MIC banded into grades, read-out: MIC grade, A. terreus 49; for MIC grade, A. terreus 49: MIC banded into grades
Summary of the method: as §1

Aspergillus terreus AT4 [5] = assay: MIC, RPMI medium; conditions: for MIC: Aspergillus terreus, AT4, MIC banded into grades, read-out: MIC grade, A. terreus; for MIC grade, A. terreus: MIC banded into grades
Summary of the method: as §1

Aspergillus niger [6] = assay: MIC, RPMI medium; conditions: MIC banded into grades; for MIC: Aspergillus niger, read-out: MIC grade, A. niger
Summary of the method: as §1

Aspergillus flavus [7] = assay: MIC, YAG medium; conditions: 24 h at 35° C, MIC banded into grades; for MIC: Aspergillus flavus, 24 h, read-out: MIC grade, A. flavus
Summary of the method: (§2)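 MICs (mg/L) derive from the lowest compound concentration suppressing spore outgrowth by >70% against a drug-free well, by OD 485 nm. Conditions: YAG medium, 1−2×10^4 cfu/mL, 24 h, 35° C, two-fold dilutions from 50 mg/L.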

[8] = tested on: Aspergillus fumigatus AF210; assay: MIC, YAG medium; conditions: 24 h at 35° C, MIC banded into grades; for MIC: Aspergillus fumigatus, read-out: MIC grade, A. fumigatus 210
Summary of the method: as §2

[9] = tested on: Aspergillus fumigatus AF293; assay: MIC, YAG medium; conditions: 24 h at 35° C, MIC banded into grades; for MIC: Aspergillus fumigatus, read-out: MIC grade, A. fumigatus
Summary of the method: as §2

Aspergillus terreus AT49 [10] = assay: MIC, YAG medium; conditions: 24 h at 35° C, MIC banded into grades; for MIC: Aspergillus terreus, read-out: MIC grade, A. terreus 49
Summary of the method: as §2

Aspergillus terreus AT4 [11] = assay: MIC, YAG medium; conditions: 24 h at 35° C, MIC banded into grades; for MIC: Aspergillus terreus, read-out: MIC grade, A. terreus
Summary of the method: as §2

Aspergillus niger [12] = assay: MIC, YAG medium; conditions: 24 h at 35° C, MIC banded into grades; for MIC: Aspergillus niger, read-out: MIC grade, A. niger
Summary of the method: as §2

MIC (Aspergillus flavus [1]) [µg/mL] | MIC [2] [µg/mL] | MIC [3] [µg/mL] | MIC (Aspergillus terreus AT49 [4]) [µg/mL] | MIC (Aspergillus terreus AT4 [5]) [µg/mL] | MIC (Aspergillus niger [6]) [µg/mL] | MIC (Aspergillus flavus [7]) [µg/mL] | MIC [8] [µg/mL] | MIC [9] [µg/mL] | MIC (Aspergillus terreus AT49 [10]) [µg/mL] | MIC (Aspergillus terreus AT4 [11]) [µg/mL] | MIC (Aspergillus niger [12]) [µg/mL] | SMILES | also measured
> 10 | > 10 | > 10 | > 10 | > 10 | > 10 | 1 to 10 (≈ 1.5 to 15 µM) | > 10 | > 10 | 1 to 10 (≈ 1.5 to 15 µM) | > 10 | > 10 | Cc1cc(C)nc(N2CCN(c3ccc(NC(=O)C(=O)c4c(-c5ccccc5)cc(C)n4C)cc3COCCCN3CCOCC3)CC2)c1 [Example 10, 2-(1,5-Dimethyl-3-phenyl-1H-pyrrol-2-yl)-N-[4-[4-(4,6-dimethyl-pyridin-2-yl)-piperazin-1-yl]-3-(3-morpholin-4-yl-propoxymethyl)-phenyl]-2-oxo-acetamide] | –
< 1 | < 1 | < 1 | < 1 | < 1 | < 1 | < 1 | < 1 | < 1 | < 1 | < 1 | < 1 | Cc1cc(-c2ccccc2)c(C(=O)C(=O)Nc2ccc(N3CCN(C(C)Cc4ccco4)CC3)cc2)n1C (stereo not drawn) [Example 152, 2-(1,5-Dimethyl-3-phenyl-1H-pyrrol-2-yl)-N-{4-[4-(2-furan-2-yl-1-methyl-ethyl)-piperazin-1-yl]-phenyl}-2-oxo-acetamide] | –
> 10 | > 10 | > 10 | 1 to 10 (≈ 2.03 to 20.3 µM) | 1 to 10 (≈ 2.03 to 20.3 µM) | > 10 | 1 to 10 (≈ 2.03 to 20.3 µM) | 1 to 10 (≈ 2.03 to 20.3 µM) | > 10 | < 1 | < 1 | > 10 | Cc1cc(C)nc(N2CCN(c3ccc(NC(=O)C(=O)c4ccc(C)n4-c4ccccc4)cc3)CC2)c1 [Example 3, N-{4-[4-(4,6-Dimethyl-pyridin-2-yl)-piperazin-1-yl]-phenyl}-2-(5-methyl-1-phenyl-1H-pyrrol-2-yl)-2-oxo-acetamide] | –
1 to 10 (≈ 2.71 to 27.1 µM) | 1 to 10 (≈ 2.71 to 27.1 µM) | 1 to 10 (≈ 2.71 to 27.1 µM) | < 1 | < 1 | 1 to 10 (≈ 2.71 to 27.1 µM) | < 1 | 1 to 10 (≈ 2.71 to 27.1 µM) | 1 to 10 (≈ 2.71 to 27.1 µM) | < 1 | < 1 | 1 to 10 (≈ 2.71 to 27.1 µM) | Cc1cc(-c2ccccc2)c(C(=O)C(=O)Nc2cccc3cccnc23)n1C [Example 31, 2-(1,5-Dimethyl-3-phenyl-1H-pyrrol-2-yl)-2-oxo-N-quinolin-8-yl-acetamide] | –
> 10 | > 10 | > 10 | > 10 | > 10 | > 10 | < 1 | 1 to 10 (≈ 2.09 to 20.9 µM) | 1 to 10 (≈ 2.09 to 20.9 µM) | < 1 | < 1 | > 10 | Cc1cc(C)nc(N2CCN(c3ccc(NC(=O)C(=O)c4cccn4-c4ccccc4)cc3)CC2)c1 [Example 2, N-{4-[4-(4,6-Dimethyl-pyridin-2-yl)-piperazin-1-yl]-phenyl}-2-oxo-2-(1-phenyl-1H-pyrrol-2-yl)-acetamide] | –

The remaining lines, values behind:

SMILES | MIC (Aspergillus flavus [1]) [µg/mL] | MIC [2] [µg/mL] | MIC [3] [µg/mL] | MIC (Aspergillus terreus AT49 [4]) [µg/mL] | MIC (Aspergillus terreus AT4 [5]) [µg/mL] | MIC (Aspergillus niger [6]) [µg/mL] | MIC (Aspergillus flavus [7]) [µg/mL] | MIC [8] [µg/mL] | MIC [9] [µg/mL] | MIC (Aspergillus terreus AT49 [10]) [µg/mL] | MIC (Aspergillus terreus AT4 [11]) [µg/mL] | MIC (Aspergillus niger [12]) [µg/mL] | also measured
Cc1cc(-c2ccccc2)c(C(=O)C(=O)Nc2ccc(N3CCN(c4ccccn4)CC3)cc2F)n1C [Example 95, 2-(1,5-Dimethyl-3-phenyl-1H-pyrrol-2-yl)-N-[2-fluoro-4-(4-pyridin-2-yl-piperazin-1-yl)-phenyl]-2-oxo-acetamide] | < 1 | < 1 | < 1 | < 1 | < 1 | < 1 | < 1 | < 1 | < 1 | < 1 | < 1 | < 1 | –
CSCCn1c(C)cc(-c2ccccc2)c1C(=O)C(=O)Nc1ccc(N2CCN(c3cc(C)cc(C)n3)CC2)cc1 [Example 133, N-{4-[4-(4,6-Dimethyl-pyridin-2-yl)-piperazin-1-yl]-phenyl}-2-[5-methyl-1-(2-methylsulfanyl-ethyl)-3-phenyl-1H-pyrrol-2-yl]-2-oxo-acetamide] | > 10 | < 1 | < 1 | 1 to 10 (≈ 1.76 to 17.6 µM) | 1 to 10 (≈ 1.76 to 17.6 µM) | < 1 | 1 to 10 (≈ 1.76 to 17.6 µM) | < 1 | < 1 | < 1 | < 1 | < 1 | –
CCCn1c(C)cc(-c2ccccc2)c1C(=O)C(=O)Nc1ccc(N2CCN(c3cc(C)cc(C)n3)CC2)cc1 [Example 35, N-{4-[4-(4,6-Dimethyl-pyridin-2-yl)-piperazin-1-yl]-phenyl}-2-(5-methyl-3-phenyl-1-propyl-1H-pyrrol-2-yl)-2-oxo-acetamide] | < 1 | < 1 | < 1 | < 1 | < 1 | < 1 | < 1 | < 1 | < 1 | < 1 | < 1 | < 1 | –
Cc1cc(-c2ccccc2)c(C(=O)C(=O)Nc2ccc(N3CCN(c4ccccn4)CC3)c(F)c2)n1C [Example 116, 2-(1,5-Dimethyl-3-phenyl-1H-pyrrol-2-yl)-N-[3-fluoro-4-(4-pyridin-2-yl-piperazin-1-yl)-phenyl]-2-oxo-acetamide] | > 10 | < 1 | < 1 | < 1 | < 1 | < 1 | < 1 | < 1 | < 1 | < 1 | < 1 | < 1 | –
COC(=O)Cn1cc(-c2ccccc2)cc1C(=O)C(=O)Nc1ccc(N2CCN(c3cc(C)cc(C)n3)CC2)cc1 [Example 122, (2-{4-[4-(4,6-Dimethyl-pyridin-2-yl)-piperazin-1-yl]-phenylaminooxalyl}-4-phenyl-pyrrol-1-yl)-acetic acid methyl ester] | – | – | – | – | – | – | – | – | – | – | – | – | MIC grade, A. flavus (Aspergillus flavus [1]): 1 (a grade of 1 represents an MIC of greater than 10 mg/L); MIC grade, A. fumigatus 210 [2]: 1 (a grade of 1 represents an MIC of greater than 10 mg/L); MIC grade, A. fumigatus [3]: 1 (a grade of 1 represents an MIC of greater than 10 mg/L); MIC grade, A. terreus 49 (Aspergillus terreus AT49 [4]): 1 (a grade of 1 represents an MIC of greater than 10 mg/L); MIC grade, A. terreus (Aspergillus terreus AT4 [5]): 1 (a grade of 1 represents an MIC of greater than 10 mg/L); MIC grade, A. niger (Aspergillus niger [6]): 2 (A grade of 2 represents an MIC of from 1 to 10 mg/L); MIC grade, A. flavus (Aspergillus flavus [7]): 1 (a grade of 1 represents an MIC of greater than 10 mg/L); MIC grade, A. fumigatus 210 [8]: 2 (A grade of 2 represents an MIC of from 1 to 10 mg/L); MIC grade, A. fumigatus [9]: 3 (A grade of 3 represents an MIC of less than 1 mg/L); MIC grade, A. terreus 49 (Aspergillus terreus AT49 [10]): 1 (a grade of 1 represents an MIC of greater than 10 mg/L); MIC grade, A. terreus (Aspergillus terreus AT4 [11]): 1 (a grade of 1 represents an MIC of greater than 10 mg/L); MIC grade, A. niger (Aspergillus niger [12]): 2 (A grade of 2 represents an MIC of from 1 to 10 mg/L)
COCCn1c(C(C)C)cc(-c2ccccc2)c1C(=O)C(=O)Nc1ccc(N2CCN(c3cc(C)cc(C)n3)CC2)cc1 [Example 78, N-{4-[4-(4,6-Dimethyl-pyridin-2-yl)-piperizin-1-yl]-phenyl}-2-[5-isopropyl-1-(2-methoxy-ethyl)-3-phenyl-1H-pyrrol-2-yl]-2-oxo-acetamide] | – | – | – | – | – | – | – | – | – | – | – | – | MIC grade, A. flavus (Aspergillus flavus [1]): 1 (a grade of 1 represents an MIC of greater than 10 mg/L); MIC grade, A. fumigatus 210 [2]: 1 (a grade of 1 represents an MIC of greater than 10 mg/L); MIC grade, A. fumigatus [3]: 1 (a grade of 1 represents an MIC of greater than 10 mg/L); MIC grade, A. terreus 49 (Aspergillus terreus AT49 [4]): 1 (a grade of 1 represents an MIC of greater than 10 mg/L); MIC grade, A. terreus (Aspergillus terreus AT4 [5]): 1 (a grade of 1 represents an MIC of greater than 10 mg/L); MIC grade, A. niger (Aspergillus niger [6]): 1 (a grade of 1 represents an MIC of greater than 10 mg/L); MIC grade, A. flavus (Aspergillus flavus [7]): 1 (a grade of 1 represents an MIC of greater than 10 mg/L); MIC grade, A. fumigatus 210 [8]: 1 (a grade of 1 represents an MIC of greater than 10 mg/L); MIC grade, A. fumigatus [9]: 1 (a grade of 1 represents an MIC of greater than 10 mg/L); MIC grade, A. terreus 49 (Aspergillus terreus AT49 [10]): 2 (A grade of 2 represents an MIC of from 1 to 10 mg/L); MIC grade, A. terreus (Aspergillus terreus AT4 [11]): 1 (a grade of 1 represents an MIC of greater than 10 mg/L); MIC grade, A. niger (Aspergillus niger [12]): 1 (a grade of 1 represents an MIC of greater than 10 mg/L)
